Assay results as given in paper PMC5741980 (Journal of Experimental Pharmacology, 2017).
Peptide text beside a SMILES is read from it.

Legend:
[1] = biological target: T1, human V1 receptors (Homo sapiens, UniProt P37288); test: Competitive binding assay, [3H]AVP, CHO-S cell membrane homogenates; details: for affinity (selectivity) for V1 higher than for V2: this study
[2] = biological target: T1, human V1 receptors; details: intracellular calcium mobilization; cited from earlier work
[3] = tested on: rat V1 receptors; details: intracellular calcium mobilization; cited from earlier work
[4] = biological target: T2, human V2 receptors (Homo sapiens, UniProt P30518); test: Functional assay, cAMP production; type: cell-based; details: compared with maximal effect of AVP
[5] = biological target: T2, human V2 receptors; test: Competitive binding assay, [3H]AVP, CHO-K1 cell membrane homogenates
[6] = tested on: V1; details: cited from earlier work; for EC50: read-out: EC50 for V1 activation, recombinant system, functional assay
[7] = biological target: T1, human V1 receptors; test: Functional assay, intracellular calcium mobilization; type: cell-based; details: compared with maximal effect of AVP
[8] = biological target: T1, human V1 receptors; details: cited from earlier work; for Ki: read-out: mean binding affinity (Ki) for human V1 receptors, human vascular smooth muscle cells
[9] = tested on: rat V1 receptors; details: cited from earlier work
[10] = tested on: V1 activation; details: rat model of portal hypertension, cited from earlier work

T1 sequence (P37288 whole entry): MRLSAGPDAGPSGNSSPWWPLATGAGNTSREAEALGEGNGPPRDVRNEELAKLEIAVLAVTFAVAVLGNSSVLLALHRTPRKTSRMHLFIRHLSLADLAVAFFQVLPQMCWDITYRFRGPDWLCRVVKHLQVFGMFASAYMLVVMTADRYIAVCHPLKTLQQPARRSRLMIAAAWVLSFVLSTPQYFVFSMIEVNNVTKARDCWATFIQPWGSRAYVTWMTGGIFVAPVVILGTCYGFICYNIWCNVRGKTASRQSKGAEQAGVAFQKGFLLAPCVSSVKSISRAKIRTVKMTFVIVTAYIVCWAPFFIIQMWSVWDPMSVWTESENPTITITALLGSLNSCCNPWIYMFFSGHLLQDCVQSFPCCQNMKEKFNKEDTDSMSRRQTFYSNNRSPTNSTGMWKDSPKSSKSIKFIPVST
T2 sequence (P30518 whole entry): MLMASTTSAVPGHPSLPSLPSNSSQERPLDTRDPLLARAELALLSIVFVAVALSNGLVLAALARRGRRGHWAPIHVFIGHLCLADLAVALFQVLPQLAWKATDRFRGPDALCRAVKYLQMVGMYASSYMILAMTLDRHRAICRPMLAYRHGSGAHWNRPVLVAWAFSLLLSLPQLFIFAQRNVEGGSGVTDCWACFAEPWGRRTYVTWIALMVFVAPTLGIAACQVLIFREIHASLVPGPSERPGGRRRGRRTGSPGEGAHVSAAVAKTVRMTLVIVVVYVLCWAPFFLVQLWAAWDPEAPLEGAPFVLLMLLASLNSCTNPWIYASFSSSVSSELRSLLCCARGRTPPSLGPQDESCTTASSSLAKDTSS

Molecule | affinity (selectivity) for V1 higher than for V2 [1] | binding affinity less than that of AVP, V1 receptors ([1]; versus AVP) | mean maximal cell activation at human V1 receptors [2] [%] | mean maximal cell activation at rat V1 receptors [3] [%] | agonist type at V2 receptors [4] | binding affinity less than that of AVP, V2 receptors ([5]; versus AVP) | EC50 [6] [nM] | agonist type at V1 receptors [7] | Ki [8] [nM] | binding affinity less than that of LVP, V1 receptors ([1]; versus LVP) | binding affinity less than that of LVP, V2 receptors ([5]; versus LVP) | EC50 higher than that for LVP ([6]; versus LVP) | selectivity for V1 receptors higher than for V2 receptors ([8]; Colson et al) [fold] | binding affinity less than that of LVP, human V1 receptors ([8]; versus LVP) | difference in binding versus LVP at rat V1 receptors [9] [fold] | mean potency for V1 activation in vasopressor tests [10] [IU×µmol^−1] | mean potency less than that of vasopressin ([10]; vasopressor tests)
NCCCC[C@H](NC(=O)[C@@H]1CCCN1C(=O)[C@@H]1CSSC[C@H](N)C(=O)N[C@@H](Cc2ccc(O)cc2)C(=O)N[C@@H](Cc2ccccc2)C(=O)N[C@@H](CCC(N)=O)C(=O)N[C@@H](CC(N)=O)C(=O)N1)C(=O)NCC(N)=O [LVP, [Lys8]-vasopressin] | approximately sixfold | about twofold | 100 | 100 | full agonist | about 12 fold | 0.93 | full agonist | 10 |  |  |  |  |  |  |  | 
NCCCC[C@H](NC(=O)[C@@H]1CCCN1C(=O)[C@@H]1CSSC[C@H](NC(=O)CNC(=O)CNC(=O)CN)C(=O)N[C@@H](Cc2ccc(O)cc2)C(=O)N[C@@H](Cc2ccccc2)C(=O)N[C@@H](CCC(N)=O)C(=O)N[C@@H](CC(N)=O)C(=O)N1)C(=O)NCC(N)=O [Terlipressin, N^α-tryglycl-8-lysine-vasopressin] (HELM PEPTIDE1{G.G.G.C.Y.F.Q.N.C.P.K.G.[am]}$PEPTIDE1,PEPTIDE1,4:R3-9:R3$$$V2.0; bridges inferred) | approximately sixfold |  | 48 | 66 | full agonist |  | 148 | partial agonist | 1230 | about 600 fold | about 700 fold | about 150 fold | 1.9 | about 120 fold | ~700 | 9 | about 66 fold
vasopressin: vasopressin comparator in Bernadich et al rat vasopressor tests; probably AVP |  |  |  |  |  |  |  |  |  |  |  |  |  |  |  | 614 | 
